# Measurements: patent US8993616B2, “(aza)indole derivative and use thereof for medical purposes” (Kissei Pharmaceutical Co., Ltd., priority 2007, dated 2015)
# Tested on: not listed separately
# Assay: Serum hypouricemic effect
# Format: in vivo
# Settings: 3 mg/kg orally, overnight fasted male CD (SD) IGS rats, 2 hours after administration
# Protocol: (1) Method for Measurement
# Test compounds at 3 mg/kg suspended in 0.5% methylcellulose solution were administered orally to overnight fasted male CD (SD) IGS rats (5-week-old, Charls River Japan). At 2 hours after administration, blood was collected under ether anesthesia from abdominal aorta, and serum was separated according to general method. Serum uric acid values were determined by use of uric acid measurement kit (Uric acid C-Test Wako: Wako), and percent decrease in uric acid was calculated according to the formula described below.
# Percent decrease in uric acid (%)=(Serum uric acid values in control animals—Serum uric acid values in animals administered test compounds)×100/Serum uric acid values in control animals
row,SMILES,Percent decrease in uric acid (hypouricemic effect)
1,"N#Cc1cn(-c2ccc(C(=O)O)c(O)c2)c2cc(F)c(F)cc12 [Example 3, 4-(3-Cyano-5,6-difluoroindol-1-yl)-2-hydroxybenzoic acid]",over 60%
2,N#Cc1cn(-c2ccc(C(=O)O)c(O)c2)c2ccccc12 [Example 188],over 60%
3,N#Cc1cn(-c2ccc(C(=O)O)c(O)c2)c2ccc(F)cc12 [Example 191],over 60%
4,N#Cc1cn(-c2ccc(C(=O)O)c(O)c2)c2cc(F)ccc12 [Example 192],over 60%

# Molecular target: Xanthine oxidase (from bovine milk, Sigma) (Bos taurus (Bovine), UniProt P80457)
# Assay: Xanthine oxidase inhibitory activity
# Format: biochemical
# Settings: xanthine substrate, 10 minutes at room temperature, absorbance at 290 nm
# Protocol: (1) Preparation of Test Compounds
# Test compounds were dissolved in DMSO (Wako) at 40 mM concentration and then diluted to intended concentrations with phosphate-buffered saline (PBS).
# (2) Method for Measurement
# Xanthine oxidase (from bovine milk, Sigma) was prepared with phosphate-buffered saline (PBS) at 0.02 units/mL, and then the solution was added to 96 well plates at 50 μL/well. In addition, test compounds diluted with PBS were added at 50 μL/well. Xanthine (Wako) at 200 μM prepared with PBS was added at 100 μL/well, and the reaction was conducted for 10 minutes at room temperature. Absorbance at 290 nm was measured using a microplate reader SpectraMax Plus 384 (Molecular device). The absorbance under a condition without xanthine is 0%, and control without test compounds is 100%. Fifty % inhibitory concentration of a test compound (IC50) was calculated (Table 60). Ex. No in the table indicates Example number.
# Chain of Xanthine oxidase (from bovine milk, Sigma) (P80457 whole entry): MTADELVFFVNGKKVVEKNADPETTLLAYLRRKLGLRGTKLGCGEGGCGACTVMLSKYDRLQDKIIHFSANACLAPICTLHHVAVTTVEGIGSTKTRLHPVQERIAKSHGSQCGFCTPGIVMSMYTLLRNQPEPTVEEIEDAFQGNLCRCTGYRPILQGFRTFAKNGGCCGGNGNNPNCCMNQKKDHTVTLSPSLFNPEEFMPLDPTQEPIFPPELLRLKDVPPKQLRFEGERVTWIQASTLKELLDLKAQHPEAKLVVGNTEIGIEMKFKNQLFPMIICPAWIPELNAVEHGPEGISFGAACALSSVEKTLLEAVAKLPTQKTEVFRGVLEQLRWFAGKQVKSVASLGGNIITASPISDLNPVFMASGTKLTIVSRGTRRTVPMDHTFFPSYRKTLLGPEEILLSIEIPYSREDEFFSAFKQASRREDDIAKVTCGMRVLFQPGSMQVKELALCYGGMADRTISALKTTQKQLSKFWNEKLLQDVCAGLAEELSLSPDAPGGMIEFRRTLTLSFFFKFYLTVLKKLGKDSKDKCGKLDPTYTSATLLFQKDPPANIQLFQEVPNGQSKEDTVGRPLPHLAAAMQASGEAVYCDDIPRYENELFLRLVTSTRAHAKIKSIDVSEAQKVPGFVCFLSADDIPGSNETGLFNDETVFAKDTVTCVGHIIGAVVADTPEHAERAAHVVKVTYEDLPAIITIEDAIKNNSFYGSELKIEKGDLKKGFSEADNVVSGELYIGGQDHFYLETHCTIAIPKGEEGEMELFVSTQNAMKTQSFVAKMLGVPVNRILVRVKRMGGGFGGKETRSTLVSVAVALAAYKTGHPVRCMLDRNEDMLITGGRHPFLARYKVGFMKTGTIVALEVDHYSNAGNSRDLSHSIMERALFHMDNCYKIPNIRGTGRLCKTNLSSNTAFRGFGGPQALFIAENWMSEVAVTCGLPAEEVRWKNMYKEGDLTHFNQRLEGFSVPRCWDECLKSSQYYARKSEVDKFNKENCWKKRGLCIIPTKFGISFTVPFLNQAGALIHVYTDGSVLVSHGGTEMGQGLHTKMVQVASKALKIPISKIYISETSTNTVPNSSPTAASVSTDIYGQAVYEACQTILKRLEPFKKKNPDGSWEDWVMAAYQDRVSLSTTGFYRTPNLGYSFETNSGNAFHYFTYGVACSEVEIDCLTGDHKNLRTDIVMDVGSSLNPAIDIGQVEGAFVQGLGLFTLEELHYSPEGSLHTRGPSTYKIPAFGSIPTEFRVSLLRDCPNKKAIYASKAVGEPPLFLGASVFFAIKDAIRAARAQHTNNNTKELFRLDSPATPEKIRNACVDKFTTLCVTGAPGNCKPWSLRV
row,SMILES,IC50 [nM]
1,"N#Cc1cn(-c2ccc(C(=O)O)c(O)c2)c2cc(F)c(F)cc12 [Example 3, 4-(3-Cyano-5,6-difluoroindol-1-yl)-2-hydroxybenzoic acid]",6.5
2,N#Cc1cn(-c2ccc(C(=O)O)c(O)c2)c2ccccc12 [Example 188],5
3,N#Cc1cn(-c2ccc(C(=O)O)c(O)c2)c2ccc(F)cc12 [Example 191],3.9
4,N#Cc1cn(-c2ccc(C(=O)O)c(O)c2)c2cc(F)ccc12 [Example 192],4.3
5,N#Cc1cn(-c2ccc(C(=O)O)c(O)c2)c2cc(Cl)c(F)cc12 [Example 193],4.6
6,N#Cc1cn(-c2ccc(C(=O)O)c(O)c2)c2cc3c(cc12)OCO3 [Example 194],8.3
7,CC(C)Oc1ccc2c(C#N)cn(-c3ccc(C(=O)O)c(O)c3)c2c1 [Example 224],9.7
8,N#Cc1cn(-c2ccc(C(=O)O)c(O)c2)c2cccc(F)c12 [Example 225],4.6
9,CS(=O)(=O)NCCOc1ccc2c(C#N)cn(-c3ccc(C(=O)O)c(O)c3)c2c1 [Example 238],8.3
10,CC(=O)NCCCOc1ccc2c(C#N)cn(-c3ccc(C(=O)O)c(O)c3)c2c1 [Example 239],6.5
11,CS(=O)(=O)NCCCOc1ccc2c(C#N)cn(-c3ccc(C(=O)O)c(O)c3)c2c1 [Example 240],9.8
12,N#Cc1cn(-c2ccc(C(=O)O)cc2)c2cccc(-c3ccccc3)c12 [Example 286],58
13,COc1cc2c(C#N)cn(-c3ccc(C(=O)O)cc3)c2cc1F [Example 287],16
14,COc1c(C)cc2c(c(C#N)cn2-c2ccc(C(=O)O)cc2)c1C [Example 288],10
15,COc1cc2c(C#N)cn(-c3ccc(C(=O)O)cc3)c2cc1Cl [Example 293],14
16,Cc1cc2c(C#N)cn(-c3ccc(C(=O)O)cc3)c2cc1Cl [Example 295],9
17,Cc1cc2c(C#N)cn(-c3ccc(C(=O)O)cc3)c2cc1F [Example 298],12
18,CN(C)c1cc2c(C#N)cn(-c3ccc(C(=O)O)cc3)c2cc1C(F)(F)F [Example 300],96
19,CC(C)Oc1cc2c(C#N)cn(-c3ccc(C(=O)O)cc3)c2cc1F [Example 303],10
20,Cc1cc2c(C#N)cn(-c3ccc(C(=O)O)cn3)c2cc1F [Example 307],13
21,COCOc1cc(-n2cc(C#N)c3ccccc32)ccc1C(=O)O [Example 308],45
22,Cc1cc2c(C#N)cn(-c3ccc(C(=O)O)c(O)c3)c2cc1F [Example 316],10
23,N#Cc1cn(-c2ccc(C(=O)O)c(O)c2)c2c(F)cccc12 [Example 318],12

# Continued, values first:
row,IC50 [nM],SMILES
1,9.4,CCCOc1ccc2c(C#N)cn(-c3ccc(C(=O)O)c(O)c3)c2c1 [Example 220]
2,71.5,CCCCOc1ccc2c(C#N)cn(-c3ccc(C(=O)O)c(O)c3)c2c1 [Example 221]
3,41.8,N#Cc1cn(-c2ccc(C(=O)O)c(O)c2)c2cc(OCCOc3ccccc3)ccc12 [Example 222]
4,7.5,CCOc1ccc2c(C#N)cn(-c3ccc(C(=O)O)c(O)c3)c2c1 [Example 223]
5,10,CN(C)CCCOc1ccc2c(C#N)cn(-c3ccc(C(=O)O)c(O)c3)c2c1 [Example 226]
6,10.4,N#Cc1cn(-c2ccc(C(=O)O)c(O)c2)c2cc(OCCCN)ccc12 [Example 227]
7,7.5,N#Cc1cn(-c2ccc(C(=O)O)c(O)c2)c2cc(OCCCO)ccc12 [Example 228]
8,7.1,N#Cc1cn(-c2ccc(C(=O)O)c(O)c2)c2cc(OCCCCO)ccc12 [Example 229]
9,67.1,N#Cc1cn(-c2ccc(C(=O)O)c(O)c2)c2cc(OCc3ccccc3Cl)ccc12 [Example 230]
10,29.1,N#Cc1cn(-c2ccc(C(=O)O)c(O)c2)c2cc(OCc3cccc(Cl)c3)ccc12 [Example 231]
11,42.5,N#Cc1cn(-c2ccc(C(=O)O)c(O)c2)c2cc(OCc3ccc(Cl)cc3)ccc12 [Example 232]
12,7.2,N#Cc1cn(-c2ccc(C(=O)O)c(O)c2)c2cc(OCC3CC3)ccc12 [Example 233]
13,86.5,N#Cc1cn(-c2ccc(C(=O)O)c(O)c2)c2cc(OCC3CCC3)ccc12 [Example 234]
14,14.2,CN(C)CCOc1ccc2c(C#N)cn(-c3ccc(C(=O)O)c(O)c3)c2c1 [Example 235]

# Molecular target: human URAT1 (Homo sapiens (Human), UniProt Q96S37)
# Assay: Inhibitory activity of uric acid transport with human URAT1 expressing cells
# Format: cell-based
# Settings: COS-7; 10 μM test compound; 14C-labeled uric acid uptake in COS7 cells transiently expressing human URAT1, 5 minutes
# Protocol: (1) Preparation of Transiently Human URAT1 Expressing Cells
# Full length human URAT1 cDNA (NCBI Accession No. NM_144585) was subcloned into expression vector, pcDNA3.1 (Invitrogen). Human URAT1 expression vector was transfected into COS7 cells (RIKEN CELL BANK RCB0539) using Lipofectamine 2000. COS7 cells were cultured in collagen-coated 24 well plates (Asahi Techno Glass) at 2×10^5/well in D-MEM culture medium (Invitrogen) containing 10% fetal bovine serum (Sanko Junyaku) for 2 hours at 37° C. under the condition of 5% CO2. For 1 well, 2 μL of Lipofectamine 2000 was diluted in 50 μL of OPTI-MEM (Invitrogen) and allowed to stand at room temperature for 7 minutes (hereinafter referred to as Lipo2000-OPTI). For 1 well, 0.8 μg of human URAT1 expression vector was diluted in 50 μL of OPTI-MEM (Invitrogen) and combined gently with Lipo2000-OPTI. After standing at room temperature for 25 minutes, the mixture was added to COS7 cells at 100 μL/well. […]
# All tests were performed on hot-plate at 37° C. […] After mixing, the radioactivity was counted in a liquid scintillation counter (PerkinElmer). The radioactivity in COST cells not transfected with URAT1 expression vector was also counted under the same condition as control. […]
# • A: Radioactivity in control • B: Radioactivity in the case of addition of test compounds • C: Radioactivity in COST cells not transfected with URAT1 expression vector
# Chain of human URAT1 (Q96S37 whole entry): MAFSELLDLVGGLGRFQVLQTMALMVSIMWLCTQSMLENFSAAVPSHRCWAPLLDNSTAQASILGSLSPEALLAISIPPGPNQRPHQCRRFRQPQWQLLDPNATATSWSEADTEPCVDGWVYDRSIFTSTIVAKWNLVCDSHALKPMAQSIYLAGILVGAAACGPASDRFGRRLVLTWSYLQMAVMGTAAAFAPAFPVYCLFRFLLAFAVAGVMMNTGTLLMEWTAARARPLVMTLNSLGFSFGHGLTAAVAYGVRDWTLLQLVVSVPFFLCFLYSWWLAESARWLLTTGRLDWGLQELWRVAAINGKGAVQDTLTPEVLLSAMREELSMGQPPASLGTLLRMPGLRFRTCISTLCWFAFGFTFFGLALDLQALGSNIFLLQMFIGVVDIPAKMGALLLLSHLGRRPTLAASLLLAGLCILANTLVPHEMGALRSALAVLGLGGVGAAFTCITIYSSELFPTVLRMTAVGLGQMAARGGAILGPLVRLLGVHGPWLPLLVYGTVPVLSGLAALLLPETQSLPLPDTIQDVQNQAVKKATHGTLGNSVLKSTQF
row,inhibition at 10 µM [%],SMILES
1,47,N#Cc1cn(-c2ccc(C(=O)O)c(O)c2)c2cc(Cl)c(F)cc12 [Example 193]
2,64,N#Cc1cn(-c2ccc(C(=O)O)c(O)c2)c2cc3c(cc12)OCO3 [Example 194]
